For orientation: Kd means a measure of binding affinity in units of concentration. A low value points to a tighter complex.

Test [1] addresses T1, Myelin-associated glycoprotein (Mus musculus) (UniProt P20917).
T1 sequence (whole entry): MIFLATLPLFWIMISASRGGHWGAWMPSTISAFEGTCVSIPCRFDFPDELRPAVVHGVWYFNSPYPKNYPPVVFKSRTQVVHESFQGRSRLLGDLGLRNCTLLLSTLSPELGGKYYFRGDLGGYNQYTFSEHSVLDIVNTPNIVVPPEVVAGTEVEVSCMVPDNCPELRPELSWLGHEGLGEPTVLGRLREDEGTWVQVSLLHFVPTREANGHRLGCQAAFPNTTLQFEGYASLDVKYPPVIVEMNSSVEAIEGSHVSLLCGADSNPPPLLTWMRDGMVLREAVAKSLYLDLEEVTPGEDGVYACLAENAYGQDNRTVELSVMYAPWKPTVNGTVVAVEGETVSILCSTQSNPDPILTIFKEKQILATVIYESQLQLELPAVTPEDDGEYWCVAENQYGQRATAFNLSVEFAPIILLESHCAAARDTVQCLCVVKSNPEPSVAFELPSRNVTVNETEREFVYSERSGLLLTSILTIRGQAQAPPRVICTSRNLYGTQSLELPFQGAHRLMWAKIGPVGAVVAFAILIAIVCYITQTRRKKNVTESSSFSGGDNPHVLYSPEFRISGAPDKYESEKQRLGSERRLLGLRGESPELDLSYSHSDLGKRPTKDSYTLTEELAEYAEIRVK
In words: Antagonist activity at mouse MAGd1-3Fc domain expressed in CHO-Lec1 cells by fluorescent hapten binding assay relative to (2R,4R,5S,6R)-5-acetamido-6-((1R,2R)-3-benzamido-1,2-dihydroxypropyl)-2-(benzyloxy)-4-hydroxytetrahydro-2H-pyran-2-carboxylate. It is filed as cell-based.

In test [2] the target is T2, Myelin-associated glycoprotein (Mus musculus, UniProt P20917).
T2 sequence (P20917 whole entry): T1 sequence (whole entry)
Description: Binding affinity to mouse MAGd1-3Fc domain expressed in CHO-Lec1 cells by surface plasmon resonance. Background: SPR reads the build-up and loss of mass on a sensor chip optically.

On to `O=C(CF)N[C@H]1[C@H]([C@H](O)[C@H](O)CNC(=O)c2ccc(Cl)cc2)O[C@@](OCc2cccc(F)c2F)(C(=O)O)C[C@@H]1O`, for which the Ratio IC50 in test [1] was 0.02. The Kd in test [2] was 0.5 µM.
In the case of `CC(=O)N[C@H]1C[C@](OCc2ccccc2)(C(=O)O)C[C@@H](OCCNC(=O)c2ccc(Cl)cc2)[C@@H]1NC(=O)CF`, the Ratio IC50 in test [1] worked out at 4300. This compound also displayed a Kd in test [2] of more than 800 µM.
As to `CC(=O)N[C@H]1[C@H]([C@H](O)[C@H](O)CNC(=O)c2ccccc2)O[C@@](OCc2ccccc2)(C(=O)O)C[C@@H]1O`, the Kd in test [2] was 26 µM.

(Values after ChEMBL document CHEMBL1250550, “Design, synthesis, biological evaluation, and modeling of a non-carbohydrate antagonist of the myelin-associated glycoprotein” (Bioorg Med Chem, 2010).)
